Laboratory results taken from PMC6416464 (Drug Metabolism Letters, 2018).
Like-named read-outs stand apart in the source and are kept apart here.

Legend:
[1] = target: T1, CYP3A4 (Homo sapiens, UniProt P08684); assay: in vitro; conditions: microsomes, pH 7.4
[2] = target: T2, rCYP1A2 (Homo sapiens, UniProt P05177); assay: Metabolic stability / reaction phenotyping with recombinant human CYP1A2; conditions: for % Metabolized at 30 min Incubation with Human Liver Fractions/Enzymes rCYP1A2: 1 µM test compound, 100 pmol/mL
T2 sequence (P05177 1-516): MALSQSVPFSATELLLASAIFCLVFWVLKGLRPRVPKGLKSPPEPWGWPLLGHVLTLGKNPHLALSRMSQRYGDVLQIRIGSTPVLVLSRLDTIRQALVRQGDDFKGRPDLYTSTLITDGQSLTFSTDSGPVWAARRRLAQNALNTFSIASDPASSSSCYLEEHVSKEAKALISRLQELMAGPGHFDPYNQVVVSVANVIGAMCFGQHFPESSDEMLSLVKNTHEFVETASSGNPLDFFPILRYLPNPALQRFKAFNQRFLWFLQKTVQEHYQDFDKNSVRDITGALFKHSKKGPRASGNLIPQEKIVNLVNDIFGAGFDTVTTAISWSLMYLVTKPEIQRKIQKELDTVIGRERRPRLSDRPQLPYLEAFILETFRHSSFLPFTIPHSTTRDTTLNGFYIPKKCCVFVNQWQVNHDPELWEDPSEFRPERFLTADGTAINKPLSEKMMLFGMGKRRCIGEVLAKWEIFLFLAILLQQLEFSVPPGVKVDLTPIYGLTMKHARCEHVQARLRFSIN

[3] = target: rCYP2C19 (Homo sapiens, UniProt P33261); assay: Metabolic stability / reaction phenotyping with recombinant human CYP2C19; conditions: for % Metabolized at 30 min Incubation with Human Liver Fractions/Enzymes rCYP2C19: 1 µM test compound, 100 pmol/mL
Sequence of rCYP2C19 (P33261 whole entry): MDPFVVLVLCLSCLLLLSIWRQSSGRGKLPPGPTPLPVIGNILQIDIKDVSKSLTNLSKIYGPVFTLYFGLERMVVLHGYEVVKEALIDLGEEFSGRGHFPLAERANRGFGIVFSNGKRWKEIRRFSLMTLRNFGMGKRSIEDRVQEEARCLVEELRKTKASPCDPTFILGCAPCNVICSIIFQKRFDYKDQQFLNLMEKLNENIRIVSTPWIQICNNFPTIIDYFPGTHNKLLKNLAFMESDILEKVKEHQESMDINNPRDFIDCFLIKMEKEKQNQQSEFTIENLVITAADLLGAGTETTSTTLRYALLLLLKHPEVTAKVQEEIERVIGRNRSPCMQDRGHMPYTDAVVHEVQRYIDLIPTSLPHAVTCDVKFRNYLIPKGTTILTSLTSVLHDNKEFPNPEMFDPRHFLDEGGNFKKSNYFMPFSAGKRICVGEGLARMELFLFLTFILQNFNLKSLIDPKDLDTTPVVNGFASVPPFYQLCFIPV

[4] = target: rCYP2D6 (Homo sapiens, UniProt P10635); assay: Metabolic stability / reaction phenotyping with recombinant human CYP2D6; conditions: for % Metabolized at 30 min Incubation with Human Liver Fractions/Enzymes rCYP2D6: 1 µM test compound, 100 pmol/mL
Sequence of rCYP2D6 (P10635 whole entry): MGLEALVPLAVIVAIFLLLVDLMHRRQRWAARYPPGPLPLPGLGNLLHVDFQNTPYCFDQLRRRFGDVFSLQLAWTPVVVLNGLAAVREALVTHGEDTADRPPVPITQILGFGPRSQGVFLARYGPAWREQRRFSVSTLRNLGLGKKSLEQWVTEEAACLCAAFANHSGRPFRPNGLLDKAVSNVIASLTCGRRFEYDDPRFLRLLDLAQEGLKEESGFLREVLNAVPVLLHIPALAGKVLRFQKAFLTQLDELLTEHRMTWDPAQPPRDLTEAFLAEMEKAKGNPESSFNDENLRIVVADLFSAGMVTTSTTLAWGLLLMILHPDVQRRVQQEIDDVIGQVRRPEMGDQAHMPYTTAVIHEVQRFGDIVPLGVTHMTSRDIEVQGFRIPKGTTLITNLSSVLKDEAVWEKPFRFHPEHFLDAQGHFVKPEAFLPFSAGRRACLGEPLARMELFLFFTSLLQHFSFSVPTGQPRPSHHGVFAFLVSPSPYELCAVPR

[5] = target: T3, CYP1A2 (Homo sapiens, UniProt P05177); assay: CYP inhibition in human liver microsomes, CYP1A2; conditions: inhibitor 10 µM, HLM, NI: No Inhibitin
T3 sequence (P05177 1-516): T2 sequence (P05177 1-516)

[6] = target: rCYP2C9 (Homo sapiens, UniProt P11712); assay: Metabolic stability / reaction phenotyping with recombinant human CYP2C9; conditions: for % Metabolized at 30 min Incubation with Human Liver Fractions/Enzymes rCYP2C9: 1 µM test compound, 100 pmol/mL
Sequence of rCYP2C9 (P11712 whole entry): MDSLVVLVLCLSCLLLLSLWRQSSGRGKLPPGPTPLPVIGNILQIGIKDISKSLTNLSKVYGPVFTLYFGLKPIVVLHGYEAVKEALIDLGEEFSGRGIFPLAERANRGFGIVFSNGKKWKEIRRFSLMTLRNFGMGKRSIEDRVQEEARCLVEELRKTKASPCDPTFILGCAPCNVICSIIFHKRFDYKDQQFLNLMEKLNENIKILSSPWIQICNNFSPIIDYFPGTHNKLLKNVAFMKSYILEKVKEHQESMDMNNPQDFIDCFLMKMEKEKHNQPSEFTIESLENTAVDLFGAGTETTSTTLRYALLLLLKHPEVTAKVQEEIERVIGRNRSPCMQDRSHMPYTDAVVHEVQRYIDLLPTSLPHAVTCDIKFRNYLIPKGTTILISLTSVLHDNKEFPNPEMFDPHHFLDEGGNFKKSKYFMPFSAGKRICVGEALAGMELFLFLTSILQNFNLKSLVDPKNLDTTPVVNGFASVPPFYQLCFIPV

[7] = target: T4, rCYP2C8 (Homo sapiens, UniProt P10632); assay: Metabolic stability / reaction phenotyping with recombinant human CYP2C8; conditions: for % Metabolized at 30 min Incubation with Human Liver Fractions/Enzymes rCYP2C8: 1 µM test compound, 100 pmol/mL
T4 sequence (P10632 1-490): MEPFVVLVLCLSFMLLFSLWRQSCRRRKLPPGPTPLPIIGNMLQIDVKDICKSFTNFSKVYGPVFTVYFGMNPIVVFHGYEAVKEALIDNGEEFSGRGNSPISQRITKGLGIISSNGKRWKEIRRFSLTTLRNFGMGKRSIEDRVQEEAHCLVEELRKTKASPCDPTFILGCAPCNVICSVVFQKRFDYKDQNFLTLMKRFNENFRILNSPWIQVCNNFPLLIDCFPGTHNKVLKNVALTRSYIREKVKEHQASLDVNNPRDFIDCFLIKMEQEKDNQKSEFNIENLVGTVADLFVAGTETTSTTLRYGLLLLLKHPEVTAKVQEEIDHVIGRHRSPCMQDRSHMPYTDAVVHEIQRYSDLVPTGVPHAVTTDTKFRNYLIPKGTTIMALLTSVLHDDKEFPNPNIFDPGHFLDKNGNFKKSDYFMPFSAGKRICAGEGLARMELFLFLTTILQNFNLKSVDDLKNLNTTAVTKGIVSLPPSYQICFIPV

[8] = target: T5, CYP2C8 (Homo sapiens, UniProt P10632); assay: CYP inhibition in human liver microsomes, CYP2C8; conditions: for % Inhibition of Control Activity CYP2C8: NI: No Inhibitin
T5 sequence (P10632 1-490): T4 sequence (P10632 1-490)

[9] = Metabolic stability, incubation with human liver microsomes; conditions: 1 µM test compound, 0.5 mg/mL protein
[10] = target: CYP2C19 (Homo sapiens, UniProt P33261); assay: CYP inhibition in human liver microsomes, CYP2C19; conditions: inhibitor 10 µM, HLM, NI: No Inhibitin
Sequence of CYP2C19 (P33261 whole entry): as the sequence (P33261 whole entry) above

[11] = target: T1, CYP3A4; assay: in vitro; conditions: microsomes, pH 7.4, % Inhibition of Control Activity CYP3A4 (substrate, testosterone)
[12] = Metabolic stability, incubation with human liver cytosol; type: in vitro ADME; conditions: 1 µM test compound, 1 mg/mL protein
[13] = target: CYP2C9 (Homo sapiens, UniProt P11712); assay: CYP inhibition in human liver microsomes, CYP2C9; conditions: for % Inhibition of Control Activity CYP2C9: NI: No Inhibitin
Sequence of CYP2C9 (P11712 whole entry): as the sequence (P11712 whole entry) above

[14] = target: rCYP3A4 (Homo sapiens, UniProt P08684)
Sequence of rCYP3A4 (P08684 whole entry): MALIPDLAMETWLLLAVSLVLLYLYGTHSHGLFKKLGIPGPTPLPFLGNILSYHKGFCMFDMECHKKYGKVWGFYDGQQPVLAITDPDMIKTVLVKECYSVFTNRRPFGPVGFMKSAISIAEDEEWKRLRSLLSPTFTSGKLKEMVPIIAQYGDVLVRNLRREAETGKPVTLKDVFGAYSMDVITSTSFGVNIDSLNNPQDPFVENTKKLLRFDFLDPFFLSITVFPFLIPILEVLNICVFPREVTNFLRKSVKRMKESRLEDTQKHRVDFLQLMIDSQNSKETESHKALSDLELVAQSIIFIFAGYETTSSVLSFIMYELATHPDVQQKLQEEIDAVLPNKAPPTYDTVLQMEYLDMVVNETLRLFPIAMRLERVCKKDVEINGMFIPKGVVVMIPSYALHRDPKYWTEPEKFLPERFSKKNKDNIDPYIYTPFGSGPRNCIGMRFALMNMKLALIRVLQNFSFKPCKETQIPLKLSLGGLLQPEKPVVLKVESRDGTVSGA

[15] = target: T1, CYP3A4; conditions: microsomes
[16] = cited from earlier work
[17] = human, recombinant human CYP1A2, 1 µM, pH 7.4
[18] = human, recombinant human CYP2D6, 1 µM, pH 7.4
[19] = human, recombinant human CYP2C9, 1 µM, pH 7.4
[20] = human, recombinant human CYP2C8, 1 µM, pH 7.4
[21] = human, human liver microsomes, pH 7.4, probe paclitaxel
[22] = human, recombinant enzyme, pH 7.4

T1 sequence (P08684 2-503): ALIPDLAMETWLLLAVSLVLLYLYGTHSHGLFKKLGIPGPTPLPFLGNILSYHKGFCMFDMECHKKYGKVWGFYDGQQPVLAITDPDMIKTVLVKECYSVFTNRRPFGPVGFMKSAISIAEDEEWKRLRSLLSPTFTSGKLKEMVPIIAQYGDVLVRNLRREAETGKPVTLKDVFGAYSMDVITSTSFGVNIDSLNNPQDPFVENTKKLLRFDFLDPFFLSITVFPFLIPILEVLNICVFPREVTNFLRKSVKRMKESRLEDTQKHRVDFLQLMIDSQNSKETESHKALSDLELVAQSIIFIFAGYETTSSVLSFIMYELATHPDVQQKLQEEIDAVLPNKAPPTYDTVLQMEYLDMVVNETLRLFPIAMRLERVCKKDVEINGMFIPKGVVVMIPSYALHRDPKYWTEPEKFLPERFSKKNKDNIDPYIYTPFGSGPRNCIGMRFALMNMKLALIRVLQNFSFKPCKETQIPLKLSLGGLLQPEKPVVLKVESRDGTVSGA

## CC(C)(O)c1ccccc1CC[C@@H](SCC1(CC(=O)O)CC1)c1cccc(/C=C/c2ccc3ccc(Cl)cc3n2)c1 [Montelukast, montelukast, reference compound]
[1]
  inhibition at 2 µM: 20%
  inhibition at 10 µM: 48%
[2]
  % Metabolized at 30 min Incubation with Human Liver Fractions/Enzymes rCYP1A2: 9.37%
[2]; [17]
  % Contribution of CYP Enzymes (fmCYP) in Metabolism, CYP1A2: 4.21%
  Predicted Microsomal Clint, CYP1A2: 1.705 µL/min/mg Protein
  rCYP Clint, CYP1A2: 0.033 µL/min/pmol
[3]
  % Metabolized at 30 min Incubation with Human Liver Fractions/Enzymes rCYP2C19: 0.00%
[4]
  % Metabolized at 30 min Incubation with Human Liver Fractions/Enzymes rCYP2D6: 7.46%
[4]; [18]
  % Contribution of CYP Enzymes (fmCYP) in Metabolism, CYP2D6: 0.64%
  Predicted Microsomal Clint, CYP2D6: 0.258 µL/min/mg Protein
  rCYP Clint, CYP2D6: 0.026 µL/min/pmol
[5]; 10 µM
  % Inhibition of Control Activity CYP1A2: 24.96%
[6]
  % Metabolized at 30 min Incubation with Human Liver Fractions/Enzymes rCYP2C9: 10.85%
[6]; [19]
  % Contribution of CYP Enzymes (fmCYP) in Metabolism, CYP2C9: 9.08%
  Predicted Microsomal Clint, CYP2C9: 3.675 µL/min/mg Protein
  rCYP Clint, CYP2C9: 0.038 µL/min/pmol
[7]
  % Metabolized at 30 min Incubation with Human Liver Fractions/Enzymes rCYP2C8: 52.29%
[7]; [20]
  % Contribution of CYP Enzymes (fmCYP) in Metabolism, CYP2C8: 39.00%
  Predicted Microsomal Clint, CYP2C8: 15.789 µL/min/mg Protein
  rCYP Clint, CYP2C8: 0.247 µL/min/pmol
[8]; [21]
  inhibition at 2 µM: 93.7%
  inhibition at 10 µM: 97.3%
[9]
  % Metabolized at 30 min Incubation with Human Liver Fractions/Enzymes HLM: 25.71%
[10]; 10 µM
  % Inhibition of Control Activity CYP2C19: 22.70%
[11]
  inhibition at 2 µM: 0.79%
  inhibition at 10 µM: 11.2%
[12]
  % Metabolized at 30 min Incubation with Human Liver Fractions/Enzymes Cytosol: 10.13%
[13]
  IC50: 1.34 µM
[14]; human, pH 7.4
  Predicted Microsomal Clint, CYP3A4: 19.054 µL/min/mg Protein
[14]; human, recombinant enzyme, 0.5 h, pH 7.4
  % Metabolized at 30 min Incubation with Human Liver Fractions/Enzymes rCYP3A4: 40.25%
[14]; [22]
  % Contribution of CYP Enzymes (fmCYP) in Metabolism, CYP3A4: 47.07%
  rCYP Clint, CYP3A4: 0.172 µL/min/pmol

## triclabendazole sulfone
[2]
  Predicted Microsomal Clint, CYP1A2: 0.069 µL/min/mg Protein
  % Metabolized at 30 min Incubation with Human Liver Fractions/Enzymes rCYP1A2: 0.40%
[2]; human, recombinant enzyme
  rCYP Clint, CYP1A2: 0.001 µL/min/pmol
[2]; recombinant enzyme
  % Contribution of CYP Enzymes (fmCYP) in Metabolism, CYP1A2: 0.05%
[3]
  Predicted Microsomal Clint, CYP2C19: 0.228 µL/min/mg Protein
  % Metabolized at 30 min Incubation with Human Liver Fractions/Enzymes rCYP2C19: 3.53%
[3]; human, recombinant enzyme
  rCYP Clint, CYP2C19: 0.012 µL/min/pmol
[3]; recombinant enzyme
  % Contribution of CYP Enzymes (fmCYP) in Metabolism, CYP2C19: 0.17%
[4]
  % Metabolized at 30 min Incubation with Human Liver Fractions/Enzymes rCYP2D6: 0.00%
[5]
  % Inhibition of Control Activity CYP1A2: 8.60%
[6]
  Predicted Microsomal Clint, CYP2C9: 130.447 µL/min/mg Protein
  % Metabolized at 30 min Incubation with Human Liver Fractions/Enzymes rCYP2C9: 98.31%
[6]; human, recombinant enzyme
  rCYP Clint, CYP2C9: 1.359 µL/min/pmol
[6]; recombinant enzyme
  % Contribution of CYP Enzymes (fmCYP) in Metabolism, CYP2C9: 97.11%
[15]; 2 µM
  % Inhibition of Control Activity CYP3A4 (substrate, testosterone): 4.09%
[15]; 10 µM
  % Inhibition of Control Activity CYP3A4 (substrate, testosterone): 8.63%
[7]
  % Metabolized at 30 min Incubation with Human Liver Fractions/Enzymes rCYP2C8: 0.00%
[8]; inhibitor 2 µM, HLM
  % Inhibition of Control Activity CYP2C8: 65.36%
[8]; inhibitor 10 µM, HLM
  % Inhibition of Control Activity CYP2C8: 92.88%
[8]; read-out: IC50 CYP 2C8, HLM
  IC50: 1.05 µM
[9]
  % Metabolized at 30 min Incubation with Human Liver Fractions/Enzymes HLM: 52.20%
[10]
  % Inhibition of Control Activity CYP2C19: 5.05%
[12]
  % Metabolized at 30 min Incubation with Human Liver Fractions/Enzymes Cytosol: 0.00%
[16]; human patients at therapeutic doses of triclabendazole
  Cmax: 2290 nM
[16]; humans
  half-life: 11 to 12 h
[13]; inhibitor 2 µM, HLM
  % Inhibition of Control Activity CYP2C9: 78.78%
[13]; inhibitor 10 µM, HLM
  % Inhibition of Control Activity CYP2C9: 96.15%
[13]; read-out: IC50 CYP 2C9, HLM
  IC50: 0.69 µM
[14]
  Predicted Microsomal Clint, CYP3A4: 3.591 µL/min/mg Protein
[14]; 1 µM test compound, 100 pmol/mL, 30 min
  % Metabolized at 30 min Incubation with Human Liver Fractions/Enzymes rCYP3A4: 9.25%
[14]; human, recombinant enzyme
  rCYP Clint, CYP3A4: 0.032 µL/min/pmol
[14]; recombinant enzyme
  % Contribution of CYP Enzymes (fmCYP) in Metabolism, CYP3A4: 2.67%
